Data taken from patent US20250059174A1, “Pharmaceutical Compounds and Compositions as C-Kit Kinase Inhibitors” (Enanta Pharmaceuticals, Inc., priority 2023, published 2025).

Experiments:
[1] = molecular target: Recombinant human c-KIT kinase (Homo sapiens (Human), UniProt P10721); assay: c-KIT kinase chemiluminescence assay (ADP-Glo); assay type: biochemical; conditions: ATP 50 μM
In short: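 Recombinant human c-KIT preincubated 30 min at RT in 40 mM Tris pH 7.5, 20 mM MgCl2, 0.1 mg/mL BSA, 50 μM DTT, then reacted 2 h at RT with ATP and polyEY substrate. ADP-Glo luminescence readout; activity normalized to high/low controls, IC50 and Hill coefficient from inhibitor-versus-normalized-response fit.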

M-07e cells = assay: M-07e cellular assay (SCF-mediated cell proliferation); assay type: cell-based; conditions: Homo sapiens, 72 hours, CellTiter Glo
In short: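 CellTiter Glo luminescence after 72 h compound exposure in SCF (EC90)-stimulated M-07e cells expressing endogenous human c-KIT.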

Recombinant human c-KIT kinase, sequence (P10721 26-976): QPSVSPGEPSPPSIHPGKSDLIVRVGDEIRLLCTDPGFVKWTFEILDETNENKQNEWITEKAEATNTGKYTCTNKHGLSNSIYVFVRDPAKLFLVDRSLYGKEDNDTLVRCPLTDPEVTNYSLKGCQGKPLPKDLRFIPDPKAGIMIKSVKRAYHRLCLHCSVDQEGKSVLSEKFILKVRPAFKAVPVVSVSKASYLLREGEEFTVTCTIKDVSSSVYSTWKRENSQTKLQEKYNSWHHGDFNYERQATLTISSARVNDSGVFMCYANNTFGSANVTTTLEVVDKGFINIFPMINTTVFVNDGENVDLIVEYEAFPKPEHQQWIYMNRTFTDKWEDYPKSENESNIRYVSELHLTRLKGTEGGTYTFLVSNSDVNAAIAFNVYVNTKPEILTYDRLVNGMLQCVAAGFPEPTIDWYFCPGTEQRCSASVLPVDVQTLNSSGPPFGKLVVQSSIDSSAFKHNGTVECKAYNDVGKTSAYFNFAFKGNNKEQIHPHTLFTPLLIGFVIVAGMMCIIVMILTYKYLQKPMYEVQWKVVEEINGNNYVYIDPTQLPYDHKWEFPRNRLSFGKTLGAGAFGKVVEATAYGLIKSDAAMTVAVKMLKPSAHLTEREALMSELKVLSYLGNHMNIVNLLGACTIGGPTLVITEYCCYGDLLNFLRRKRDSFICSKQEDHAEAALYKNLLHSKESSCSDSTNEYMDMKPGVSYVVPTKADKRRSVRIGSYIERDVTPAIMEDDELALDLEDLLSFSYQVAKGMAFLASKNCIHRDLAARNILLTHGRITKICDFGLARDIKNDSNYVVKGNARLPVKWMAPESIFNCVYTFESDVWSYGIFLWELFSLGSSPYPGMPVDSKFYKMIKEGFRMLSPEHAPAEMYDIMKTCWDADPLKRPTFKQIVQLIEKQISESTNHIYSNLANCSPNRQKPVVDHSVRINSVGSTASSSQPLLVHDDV

Structure (SMILES)	IC50 [1] [µM]	EC50 (M-07e cells) [µM]
Cc1sc(-c2noc([C@H]3C[C@@H]3F)n2)cc1NC(=O)c1cnn2ccc(N3CC4(COC4)C3)cc12 [Example 281-117]	0.1 to 1	0.1 to 1
O=C(Nc1cc(-c2noc([C@H]3C[C@@H]3F)n2)ccc1C(F)F)c1cnn2ccc(N3CC4(C3)CC(O)(C(F)F)C4)cc12 [Example 281-118]	0.1 to 1	< 0.1
O=C(Nc1cc(-c2noc(N3CC(F)(F)C3)n2)ccc1Cl)c1cnn2ccc(N3CC4(C3)CC(O)(C(F)F)C4)cc12 [Example 281-119]	0.1 to 1	< 0.1
Cc1ncc(-c2noc(N3CC(F)(F)C3)n2)cc1NC(=O)c1cnn2ccc(N3CC4(COC4)C3)cc12 [Example 281-120]	0.1 to 1	0.1 to 1
Cc1ncc(-c2noc(N3CC(F)(F)C3)n2)cc1NC(=O)c1cnn2ccc(N3CC4(C3)CC(O)(C(F)F)C4)cc12 [Example 281-121]	0.1 to 1	< 0.1
Cc1sc(-c2noc(C3CN(C(=O)C4CC4)C3)n2)cc1NC(=O)c1cnn2ccc(N3CC4(C3)CC(O)(C(F)F)C4)cc12 [Example 281-122]	0.1 to 1	> 1
O=C(Nc1cc(-c2noc(N3CC(O)(C(F)(F)F)C3)n2)ccc1Cl)c1cnn2ccc(N3CC4(COC4)C3)cc12 [Example 281-123]	< 0.1	< 0.1
O=C(Nc1cc(-c2noc(N3CC(F)(F)C3)n2)ccc1Cl)c1cnn2ccc(N3CC4(COC4)C3)cc12 [Example 281-124]	0.1 to 1	< 0.1
O=C(Nc1cc(-c2noc(N3CC(O)(C(F)(F)F)C3)n2)ccc1Cl)c1cnn2ccc(N3CC4(C3)CC(O)(C(F)F)C4)cc12 [Example 281-125]	< 0.1	< 0.1
Cc1sc(-c2noc(C3CN(C(=O)[C@H]4C[C@@H]4F)C3)n2)cc1NC(=O)c1cnn2ccc(N3CC4(COC4)C3)cc12 [Example 281-126]	> 1	> 1
Cc1sc(-c2noc(C3CN(C(=O)[C@H]4C[C@@H]4F)C3)n2)cc1NC(=O)c1cnn2ccc(N3CC4(C3)CC(O)(C(F)F)C4)cc12 [Example 281-127]	0.1 to 1	> 1
Cc1sc(-c2noc(C3CN(C(=O)C4(F)CC4)C3)n2)cc1NC(=O)c1cnn2ccc(N3CC4(COC4)C3)cc12 [Example 281-128]	0.1 to 1	0.1 to 1
Cc1sc(-c2noc(C3CN(C(=O)C4(F)CC4)C3)n2)cc1NC(=O)c1cnn2ccc(N3CC4(C3)CC(O)(C(F)F)C4)cc12 [Example 281-129]	0.1 to 1	0.1 to 1
Cc1ncc(-c2noc(C3CN(CC(F)F)C3)n2)cc1NC(=O)c1cnn2ccc(N3CC4(C3)CC(O)(C(F)F)C4)cc12 [Example 281-130]	0.1 to 1	0.1 to 1
COC(=O)N1CCC(c2nc(-c3ccc(C)c(NC(=O)c4cnn5ccc(N6CC7(COC7)C6)cc45)c3)no2)C1 (centres unmarked) [Example 281-131]	< 0.1	< 0.1
COC(=O)N1CCC(c2nc(-c3ccc(C)c(NC(=O)c4cnn5ccc(N6CC7(COC7)C6)cc45)c3)no2)CC1 [Example 281-132]	< 0.1	< 0.1
COC(=O)N1CC2(CC(c3nc(-c4ccc(C)c(NC(=O)c5cnn6ccc(N7CC8(COC8)C7)cc56)c4)no3)C2)C1 [Example 281-133]	0.1 to 1	0.1 to 1
COC(=O)N1CCC(c2nc(-c3ccc(C)c(NC(=O)c4cnn5ccc(N6CC7(C6)CC(O)(C(F)F)C7)cc45)c3)no2)CC1 [Example 281-134]	< 0.1	< 0.1
Cc1ccc(-c2noc([C@]3(C)C[C@H](OC(F)F)C3)n2)cc1NC(=O)c1cnn2ccc(N3CC4(COC4)C3)cc12 [Example 281]	< 0.1	< 0.1
COc1cccc(-c2ncc(C(=O)Nc3cc(-c4noc([C@H]5C[C@@H]5F)n4)ccc3C)o2)c1 [Example 283]	0.1 to 1	< 0.1
COc1ccccc1-c1ncc(C(=O)Nc2cc(-c3noc([C@H]4C[C@@H]4F)n3)ccc2C)o1 [Example 284]	> 1	> 1
Cc1ccc(-c2noc([C@H]3C[C@@H]3F)n2)cc1NC(=O)c1cnc(-c2cccnc2)o1 [Example 285]	> 1	> 1
Cc1ccc(-c2noc([C@H]3C[C@@H]3F)n2)cc1NC(=O)c1cnc(-c2ccncc2)o1 [Example 286]	> 1	0.1 to 1

Structure (SMILES)	IC50 [1] [µM]	EC50 (M-07e cells) [µM]
Cc1ccc(-c2noc([C@H]3C[C@@H]3F)n2)cc1NC(=O)c1cnc(-c2ccc(N)nc2)o1 [Example 287]	0.1 to 1	0.1 to 1
Cc1ccc(-c2noc([C@H]3C[C@@H]3F)n2)cc1NC(=O)c1cnc(-c2cccc(N3CC4(COC4)C3)c2)o1 [Example 288]	0.1 to 1	0.1 to 1
Cc1ccc(-c2noc([C@H]3C[C@@H]3F)n2)cc1NC(=O)c1cnc(-c2ccccc2N2CC3(COC3)C2)o1 [Example 289]	> 1	> 1
Cc1ccc(-c2noc([C@H]3C[C@@H]3F)n2)cc1NC(=O)c1cnc(-c2ccnc(N)c2)o1 [Example 290]	0.1 to 1	0.1 to 1
Cc1ccc(-c2noc([C@H]3C[C@@H]3F)n2)cc1NC(=O)c1cnc(-c2ccnc(NC(=O)OC(C)(C)C)c2)o1 [Example 291]	> 1	> 1
Cc1ccc(-c2noc([C@H]3C[C@@H]3F)n2)cc1NC(=O)c1cnc(-c2ccc3[nH]ncc3c2)o1 [Example 292]	< 0.1	< 0.1
Cc1ccc(-c2noc([C@H]3C[C@@H]3F)n2)cc1NC(=O)c1cnc(-c2ccc3[nH]ccc3c2)o1 [Example 293]	< 0.1	< 0.1
Cc1ccc(-c2noc([C@H]3C[C@@H]3F)n2)cc1NC(=O)c1cnc(-c2ccc3cn[nH]c3c2)o1 [Example 294]	< 0.1	0.1 to 1
Cc1ccc(-c2noc([C@H]3C[C@@H]3F)n2)cc1NC(=O)c1cnc(-c2ccc3cc[nH]c3c2)o1 [Example 295]	< 0.1	0.1 to 1
Cc1ccc(-c2noc([C@H]3C[C@@H]3F)n2)cc1NC(=O)c1cnc(-c2ccccn2)o1 [Example 296]	> 1	> 1
Cc1ccc(-c2noc([C@H]3C[C@@H]3F)n2)cc1NC(=O)c1cnc(-c2ccc(N3CC4(COC4)C3)cc2)o1 [Example 297]	0.1 to 1	0.1 to 1
Cc1ccc(-c2noc([C@H]3C[C@@H]3F)n2)cc1NC(=O)c1cnc(-c2ccc(NC(=O)OC(C)(C)C)nc2)o1 [Example 298]	> 1	0.1 to 1
Cc1ccc(-c2noc([C@H]3C[C@@H]3F)n2)cc1NC(=O)c1cnc(-c2ccc3c(c2)CC(=O)N3)o1 [Example 299]	< 0.1	< 0.1
Cc1ccc(-c2noc([C@H]3C[C@@H]3F)n2)cc1NC(=O)c1cnc(-c2ccc3[nH]c(=O)oc3c2)o1 [Example 300]	0.1 to 1	0.1 to 1
Cc1ccc(-c2noc([C@H]3C[C@@H]3F)n2)cc1NC(=O)c1cnc(-c2ccc3c(c2)NC(=O)C3)o1 [Example 301]	0.1 to 1	> 1
Cc1ccc(-c2noc([C@H]3C[C@@H]3F)n2)cc1NC(=O)c1cnc(-c2ccc3[nH]c(=O)[nH]c3c2)o1 [Example 302]	< 0.1	> 1
Cc1ccc(-c2noc([C@H]3C[C@@H]3F)n2)cc1NC(=O)c1cnc(-c2ccc3[nH]c4ccccc4c3c2)o1 [Example 303]	0.1 to 1	0.1 to 1
Cc1ccc(-c2noc([C@H]3C[C@@H]3F)n2)cc1NC(=O)c1cnc(-c2ccc3[nH]c(C(F)(F)F)cc3c2)o1 [Example 304]	< 0.1	< 0.1
Cc1ccc(-c2noc([C@H]3C[C@@H]3F)n2)cc1NC(=O)c1cnc(-c2cccc(N)n2)o1 [Example 305]	> 1	> 1
Cc1ccc(-c2noc([C@H]3C[C@@H]3F)n2)cc1NC(=O)c1cnc(-c2cccc(NC(=O)OC(C)(C)C)n2)o1 [Example 306]	> 1	> 1
Cc1ccc(-c2noc([C@H]3C[C@@H]3F)n2)cc1NC(=O)c1cnc(-c2ccc3oc(=O)[nH]c3c2)o1 [Example 307]	> 1	0.1 to 1
Cc1ccc(-c2noc([C@H]3C[C@@H]3F)n2)cc1NC(=O)c1cnc(-c2ccc3[nH]c(C#N)cc3c2)o1 [Example 308-1]	0.1 to 1	0.1 to 1
Cc1ccc(-c2noc([C@H]3C[C@@H](C(F)(F)F)C3)n2)cc1NC(=O)c1cnc(-c2ccc3c(c2)CC(=O)N3)o1 [Example 308-2]	< 0.1	< 0.1
